In patent US6906205B2, “Spiro and dispiro 1,2,4-trioxolane antimalarials” (Medicines for Malaria Venture MMV, priority 2002, dated 2005):

System: ANKA strain of P. berghei
Test: single dose STI in vivo screen in infected mice
Design: species or system Plasmodium berghei
Conditions: for Activity (%) 3 mg/kg SSV po / Activity (%) 10 mg/kg SSV po / Activity (%) po / Activity (%) sc / Activity (%) SSVpo: percent reduction in parasitemia day 3 post-infection; for Activity (%) 3 mg/kg SSV po / Survival (days) 3 mg/kg SSV po: single 3 mg/kg po in SSV; for Activity (%) 10 mg/kg SSV po / Survival (days) 10 mg/kg SSV po: single 10 mg/kg po in SSV; for Activity (%) po / Survival (days) po: single 10 mg/kg po in 3% ethanol and 7% Tween 80; for Activity (%) po / Activity (%) sc / Activity (%) SSVpo: mice; for Activity (%) sc / Survival (days) sc: single 10 mg/kg sc in 3% ethanol and 7% Tween 80; for Activity (%) SSVpo: single po dose in standard suspending vehicle (SSV); for Survival (days) po / Survival (days) sc / Survival (days) SSVpo: untreated control 5.6 ± 0.3; for Survival (days) SSVpo: single po dose in SSV
Description: In the single dose STI in vivo screen, Moro SPF or NMRI mice infected with the ANKA strain of P. berghei (groups of 3-5 mice) were treated on day one post-infection with trioxolanes dissolved or suspended in 3% ethanol and 7% Tween 80. […] SSV consists of 0.5% w/v CMC, 0.5% v/v benzyl alcohol, 0.4% v/v Tween 80, and 0.9% w/v sodium chloride in water. Antimalarial activity was measured by percent reduction in parasitemia on day three post-infection and survival times compared to an untreated control group. Survival to day 30 post-infection is considered to be a cure. […] Other factors influencing antimalarial activity include the stability of carbon radicals formed by β-scission subsequent to the initial electron transfer to the peroxide bond and the influence of steric effects remote from the peroxide bond on the interactions between carbon radicals and potential drug targets.

Compound	Activity (%) 3 mg/kg SSV po [%]	Activity (%) 10 mg/kg SSV po [%]	Survival (days) 10 mg/kg SSV po [days]	Survival (days) 3 mg/kg SSV po [days]	Activity (%) po	Activity (%) sc	Activity (%) SSVpo	Survival (days) po	Survival (days) sc	Survival (days) SSVpo
Cc1ccc(S(=O)(=O)O)cc1.N[C@H]1CC[C@H](NC(=O)C[C@H]2CC[C@]3(CC2)OO[C@]2(O3)C3CC4CC(C3)CC2C4)CC1 [OZ315]	92	–	–	–	–	–	–	–	–	–
NC(=O)C1CCN(C(=O)C[C@H]2CC[C@]3(CC2)OO[C@]2(O3)C3CC4CC(C3)CC2C4)CC1 [OZ311]	40	80	8.6	–	–	–	–	–	–	–
CS(=O)(=O)N1CCN(C(=O)C[C@H]2CC[C@]3(CC2)OO[C@]2(O3)C3CC4CC(C3)CC2C4)CC1 [OZ344]	0	17	7.8	7.4	–	–	–	–	–	–
Cn1ccnc1S(=O)(=O)C[C@H]1CC[C@]2(CC1)OO[C@]1(O2)C2CC3CC(C2)CC1C3 [OZ310]	38	81	7.8	–	–	–	–	–	–	–
O=C(Nc1ccccc1)N1CCC2(CC1)OOC1(O2)C2CC3CC(C2)CC1C3 (stereo not shown) [OZ102]	–	–	–	–	92%	99.97%	73%	7.0 days	19.7 days	6.7 days
O=C1c2ccccc2C(=O)N1C[C@H]1CC[C@]2(CC1)OOC1(O2)C2CC3CC(C2)CC1C3 (stereo partly shown) [OZ146]	–	–	–	–	62%	91%	40%	–	–	6.3 days
O=C1c2ccccc2C(=O)N1[C@H]1CC[C@]2(CC1)OOC1(O2)C2CC3CC(C2)CC1C3 (stereo partly shown) [OZ136]	–	–	–	–	0/0/0%	0/0/0%	0/0/0%	6.0/6.0/6.0 days	6.0/6.0/6.0 days	6.0/6.0/6.0 days
O=C(NC[C@H]1CC[C@]2(CC1)OO[C@]1(O2)C2CC3CC(C2)CC1C3)c1ccccn1 [OZ304]	61	98	8.2	–	–	–	–	–	–	–
Nc1ncccc1C(=O)NC[C@H]1CC[C@]2(CC1)OOC1(O2)C2CC3CC(C2)CC1C3 (stereo partly shown) [OZ284]	61	97	9.0	–	–	–	–	–	–	–
CCOC(=O)CCC1CCCCC12OOC1(O2)C2CC3CC(C2)CC1C3 (stereo not shown) [OZ08]	–	–	–	–	99.7%	99.9%	–	8.0 days	9.7 days	–
Cc1ccc(NC(=O)N2CCC3(CC2)OOC2(O3)C3CC4CC(C3)CC2C4)cc1 (stereo not shown) [OZ142]	–	–	–	–	0%	99.98%	2%	6.0 days	14.3 days	6.3 days
O=C(C[C@H]1CC[C@]2(CC1)OO[C@]1(O2)C2CC3CC(C2)CC1C3)N1CCN(c2ncccn2)CC1 [OZ314]	11	13	–	–	–	–	–	–	–	–
O=C(C[n+]1ccccc1)NN=C1CCC2(CC1)OOC1(O2)C2CC3CC(C2)CC1C3.[Cl-] (stereo not shown) [OZ55]	–	–	–	–	45%	97%	–	6.0 days	7.3 days	–
O=C(N1CCOCC1)N1CCC2(CC1)OOC1(O2)C2CC3CC(C2)CC1C3 (stereo not shown) [OZ188]	–	–	–	–	93%	99.87%	98%	8.7 days	9.0 days	10.0 days
CS(=O)(=O)CC(=O)NC[C@H]1CC[C@]2(CC1)OO[C@]1(O2)C2CC3CC(C2)CC1C3 [OZ350]	69	99.17	10.4	9.6	–	–	–	–	–	–
O=C(C[C@H]1CC[C@]2(CC1)OO[C@]1(O2)C2CC3CC(C2)CC1C3)N1CCS(=O)(=O)CC1 [OZ342]	0	27	6.8	–	–	–	–	–	–	–
OC[C@H]1CC[C@]2(CC1)OOC1(O2)C2CC3CC(C2)CC1C3 (stereo partly shown) [OZ119]	–	–	–	–	–	–	–	–	–	8.0 days
O=CN1CCN(C[C@H]2CC[C@]3(CC2)OO[C@]2(O3)C3CC4CC(C3)CC2C4)CC1 [OZ303]	69	99.01	8.6	–	–	–	–	–	–	–
N[C@H]1CC[C@]2(CC1)OO[C@]1(O2)C2CC3CC(C2)CC1C3 [OZ362]	58	98	9.8	7.0	–	–	–	–	–	–
